# ChEMBL document CHEMBL1201862, “PubChem BioAssay data set” (2004)
#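 Cells were grown in 96-well plates and exposed to each compound for 48 hours at five concentrations; endpoints were interpolated linearly between bracketing concentrations, or set to the highest concentration if not reached. GI50: concentration for 50% inhibition of growth.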 Calls of active or inactive are those of the source. Cut-off read from the data, not from the text of the source: active = GI50 up to about 1.1 µM and inactive = higher.
# How the values were obtained:
# Assay in all cases: inhibition of tumour cell growth, NCI panel, 48 h
# SK-OV-3 = system: SK-OV-3
# MDA-MB-231 = system: MDA-MB-231
# NCI/ADR-RES = system: NCI/ADR-RES
# BT-549 = system: BT-549
# UACC-257 = system: UACC-257
# NCI-H226 = system: NCI-H226
# ACHN = system: ACHN
# HCT-15 = system: HCT-15
# SK-MEL-5 = system: SK-MEL-5
# HT-29 = system: HT-29
# SR = system: SR
# K562 = system: K562
# SK-MEL-28 = system: SK-MEL-28
# MOLT-4 = system: MOLT-4
# MDA-N = system: MDA-N
# OVCAR-5 = system: OVCAR-5
# M14 = system: M14
# HL-60 = system: HL-60
# EKVX = system: EKVX
# TK-10 = system: TK-10
# 786-0 = system: 786-0
# CCRF-CEM = system: CCRF-CEM
# NCI-H460 = system: NCI-H460
# U-251 = system: U-251
# LOX IMVI = system: LOX IMVI
# SNB-19 = system: SNB-19
# MDA-MB-435 = system: MDA-MB-435
# HOP-92 = system: HOP-92
# UACC-62 = system: UACC-62
# MCF7 = system: MCF7
# COLO 205 = system: COLO 205
# A498 = system: A498
# Malme-3M = system: Malme-3M
# NCI-H23 = system: NCI-H23
# HCT-116 = system: HCT-116
# SF-268 = system: SF-268
# OVCAR-8 = system: OVCAR-8
# PC-3 = system: PC-3
# SF-295 = system: SF-295
# SW-620 = system: SW-620
# HOP-62 = system: HOP-62
# A549 = system: A549
# HCC 2998 = system: HCC 2998
# SN12C = system: SN12C
# OVCAR-3 = system: OVCAR-3
# UO-31 = system: UO-31
# IGROV-1 = system: IGROV-1
# T47D = system: T47D
# SNB-75 = system: SNB-75
# OVCAR-4 = system: OVCAR-4
# RPMI-8226 = system: RPMI-8226
# DU-145 = system: DU-145
# CAKI-1 = system: CAKI-1
# KM12 = system: KM12
# SF-539 = system: SF-539
# SK-MEL-2 = system: SK-MEL-2
# NCI-H522 = system: NCI-H522
# RXF 393 = system: RXF 393
compound,measurement,setting,value
N=C(N)C1CN(CC=O)C(=O)NC1=O (stereo not drawn),GI50,SK-OV-3,> 100 µM (inactive)
same,GI50,MDA-MB-231,> 100 µM (inactive)
same,GI50,NCI/ADR-RES,> 100 µM (inactive)
same,GI50,BT-549,> 100 µM (inactive)
same,GI50,UACC-257,> 100 µM (inactive)
same,GI50,NCI-H226,> 100 µM (inactive)
same,GI50,ACHN,> 100 µM (inactive)
same,GI50,HCT-15,> 100 µM
same,GI50,SK-MEL-5,> 100 µM (inactive)
same,GI50,HT-29,> 100 µM (inactive)
same,GI50,SR,> 100 µM (inactive)
same,GI50,K562,> 100 µM (inactive)
same,GI50,SK-MEL-28,> 100 µM (inactive)
same,GI50,MOLT-4,> 100 µM (inactive)
same,GI50,MDA-N,> 100 µM (inactive)
same,GI50,OVCAR-5,> 100 µM (inactive)
same,GI50,M14,> 100 µM (inactive)
same,GI50,HL-60,> 100 µM (inactive)
same,GI50,EKVX,> 100 µM (inactive)
same,GI50,TK-10,> 100 µM (inactive)
same,GI50,786-0,> 100 µM (inactive)
same,GI50,CCRF-CEM,> 100 µM (inactive)
same,GI50,NCI-H460,> 100 µM (inactive)
same,GI50,U-251,> 100 µM (inactive)
same,GI50,LOX IMVI,> 100 µM (inactive)
same,GI50,SNB-19,> 100 µM (inactive)
same,GI50,MDA-MB-435,> 100 µM (inactive)
same,GI50,HOP-92,> 100 µM (inactive)
same,GI50,UACC-62,> 100 µM (inactive)
same,GI50,MCF7,> 100 µM (inactive)
same,GI50,COLO 205,> 100 µM (inactive)
same,GI50,A498,> 100 µM (inactive)
same,GI50,Malme-3M,> 100 µM (inactive)
same,GI50,NCI-H23,> 100 µM (inactive)
same,GI50,HCT-116,> 100 µM (inactive)
same,GI50,SF-268,> 100 µM (inactive)
same,GI50,OVCAR-8,> 100 µM (inactive)
same,GI50,PC-3,> 100 µM (inactive)
same,GI50,SF-295,> 100 µM (inactive)
same,GI50,SW-620,> 100 µM (inactive)
same,GI50,HOP-62,> 100 µM (inactive)
same,GI50,A549,> 100 µM (inactive)
same,GI50,HCC 2998,> 100 µM (inactive)
same,GI50,SN12C,> 100 µM (inactive)
same,GI50,OVCAR-3,> 100 µM (inactive)
same,GI50,UO-31,> 100 µM (inactive)
same,GI50,IGROV-1,> 100 µM (inactive)
same,GI50,T47D,> 100 µM (inactive)
same,GI50,SNB-75,> 100 µM (inactive)
same,GI50,OVCAR-4,> 100 µM (inactive)
same,GI50,RPMI-8226,> 100 µM (inactive)
same,GI50,DU-145,> 100 µM (inactive)
COc1cc(/C=C2/C(=O)N/C(=N\C(C)=O)N2C)ccc1OC(C)=O,GI50,SK-OV-3,> 100 µM (inactive)
same,GI50,MDA-MB-231,> 100 µM (inactive)
same,GI50,NCI/ADR-RES,> 100 µM (inactive)
same,GI50,BT-549,> 100 µM (inactive)
same,GI50,UACC-257,> 100 µM (inactive)
same,GI50,NCI-H226,> 100 µM (inactive)
same,GI50,ACHN,> 100 µM (inactive)
same,GI50,HCT-15,> 100 µM
same,GI50,SK-MEL-5,> 100 µM (inactive)
same,GI50,HT-29,> 100 µM (inactive)
same,GI50,SK-MEL-28,> 100 µM (inactive)
same,GI50,MOLT-4,> 100 µM (inactive)
same,GI50,CAKI-1,> 100 µM (inactive)
same,GI50,MDA-N,> 100 µM (inactive)
same,GI50,OVCAR-5,> 100 µM (inactive)
same,GI50,M14,> 100 µM (inactive)
same,GI50,HL-60,53.3 µM (inactive)
same,GI50,EKVX,> 100 µM (inactive)
same,GI50,KM12,> 100 µM (inactive)
same,GI50,TK-10,47.9 µM (inactive)
same,GI50,786-0,> 100 µM (inactive)
same,GI50,NCI-H460,> 100 µM (inactive)
same,GI50,U-251,> 100 µM (inactive)
same,GI50,LOX IMVI,> 100 µM (inactive)
same,GI50,SNB-19,> 100 µM (inactive)
same,GI50,MDA-MB-435,> 100 µM (inactive)
same,GI50,SF-539,> 100 µM (inactive)
same,GI50,HOP-92,> 100 µM (inactive)
same,GI50,UACC-62,> 100 µM (inactive)
same,GI50,MCF7,> 100 µM (inactive)
same,GI50,COLO 205,> 100 µM (inactive)
same,GI50,NCI-H23,> 100 µM (inactive)
same,GI50,HCT-116,> 100 µM (inactive)
same,GI50,OVCAR-8,> 100 µM (inactive)
same,GI50,PC-3,> 100 µM (inactive)
same,GI50,SF-295,> 100 µM (inactive)
same,GI50,SW-620,> 100 µM (inactive)
same,GI50,HOP-62,> 100 µM (inactive)
same,GI50,A549,> 100 µM (inactive)
same,GI50,HCC 2998,> 100 µM (inactive)
same,GI50,SN12C,> 100 µM (inactive)
same,GI50,OVCAR-3,> 100 µM (inactive)
same,GI50,UO-31,> 100 µM (inactive)
same,GI50,IGROV-1,> 100 µM (inactive)
same,GI50,T47D,> 100 µM (inactive)
same,GI50,SNB-75,> 100 µM (inactive)
same,GI50,OVCAR-4,> 100 µM (inactive)
same,GI50,DU-145,> 100 µM (inactive)
same,GI50,SK-MEL-2,> 100 µM (inactive)
Cc1ccnc(Nc2[nH]c(C(=O)c3ccc(Cl)cc3)c(N)c2C(=S)Nc2ccccc2)c1,GI50,SK-OV-3,13.8 µM (inactive)
same,GI50,MDA-MB-231,16.6 µM (inactive)
same,GI50,NCI/ADR-RES,2.57 µM (inactive)
same,GI50,BT-549,14.2 µM (inactive)
same,GI50,UACC-257,15.6 µM (inactive)
same,GI50,NCI-H226,17.7 µM (inactive)
same,GI50,ACHN,21.7 µM (inactive)
same,GI50,HCT-15,16.1 µM
same,GI50,NCI-H522,12.8 µM (inactive)
same,GI50,HT-29,14.9 µM (inactive)
same,GI50,SR,12.6 µM (inactive)
same,GI50,K562,18.3 µM (inactive)
same,GI50,SK-MEL-28,18.6 µM (inactive)
same,GI50,MOLT-4,10.9 µM (inactive)
same,GI50,CAKI-1,27.9 µM (inactive)
same,GI50,MDA-N,15.2 µM (inactive)
same,GI50,OVCAR-5,21.2 µM (inactive)
same,GI50,M14,16.4 µM (inactive)
same,GI50,HL-60,23.8 µM (inactive)
same,GI50,EKVX,14.5 µM (inactive)
same,GI50,KM12,10 µM (inactive)
same,GI50,TK-10,17.2 µM (inactive)
same,GI50,786-0,19.1 µM (inactive)
same,GI50,CCRF-CEM,25.8 µM (inactive)
same,GI50,NCI-H460,5.82 µM (inactive)
same,GI50,U-251,15.1 µM (inactive)
same,GI50,LOX IMVI,14.8 µM (inactive)
same,GI50,RXF 393,15.9 µM (inactive)
same,GI50,SNB-19,23.4 µM (inactive)
same,GI50,MDA-MB-435,15.7 µM (inactive)
same,GI50,SF-539,12.7 µM (inactive)
same,GI50,HOP-92,17.2 µM (inactive)
same,GI50,UACC-62,10.6 µM (inactive)
same,GI50,MCF7,9.16 µM (inactive)
same,GI50,COLO 205,16 µM (inactive)
same,GI50,A498,19.1 µM (inactive)
same,GI50,Malme-3M,13.8 µM (inactive)
same,GI50,NCI-H23,19.3 µM (inactive)
same,GI50,HCT-116,14.2 µM (inactive)
same,GI50,SF-268,21.1 µM (inactive)
same,GI50,OVCAR-8,12.2 µM (inactive)
same,GI50,PC-3,20.8 µM (inactive)
same,GI50,SF-295,14.5 µM (inactive)
same,GI50,SW-620,25.9 µM (inactive)
same,GI50,HOP-62,20.5 µM (inactive)
same,GI50,A549,16 µM (inactive)
same,GI50,HCC 2998,14.7 µM (inactive)
same,GI50,SN12C,15.7 µM (inactive)
same,GI50,OVCAR-3,25.8 µM (inactive)
same,GI50,UO-31,18 µM (inactive)
same,GI50,IGROV-1,9.02 µM (inactive)
same,GI50,T47D,19.7 µM (inactive)
same,GI50,SNB-75,18.1 µM (inactive)
same,GI50,OVCAR-4,6.01 µM (inactive)
same,GI50,RPMI-8226,11 µM (inactive)
same,GI50,DU-145,22.1 µM (inactive)
same,GI50,SK-MEL-2,8.59 µM (inactive)
